Experiments:
Prothrombin [1] = molecular target: T1, Prothrombin (Homo sapiens, UniProt P00734); test: Binding affinity against thrombin
Prothrombin [2] = molecular target: T1, Prothrombin; test: Inhibitory activity against human thrombin
Serine protease 1 [3] = molecular target: T2, Serine protease 1 (Homo sapiens, UniProt P07477); test: Tested for the inhibition of trypsin at a concentration of 100 uM
Serine protease 1 [4] = molecular target: T2, Serine protease 1; test: Inhibitory activity against human trypsin
Serine protease 1 [5] = molecular target: T2, Serine protease 1; test: Compound was tested for the binding affinity against trypsin

T2 sequence (P07477 whole entry): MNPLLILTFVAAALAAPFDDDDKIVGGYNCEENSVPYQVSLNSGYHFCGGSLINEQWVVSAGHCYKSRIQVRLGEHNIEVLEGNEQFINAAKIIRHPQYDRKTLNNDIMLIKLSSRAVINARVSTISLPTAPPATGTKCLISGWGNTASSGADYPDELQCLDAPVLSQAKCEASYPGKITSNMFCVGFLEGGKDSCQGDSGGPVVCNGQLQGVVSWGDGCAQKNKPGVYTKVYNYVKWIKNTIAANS

SMILES	Ki (Prothrombin [1]) [nM]	IC50 (Prothrombin [2]) [nM]	inhibition (Serine protease 1 [3]) [%]	IC50 (Serine protease 1 [4]) [nM]	Ki (Serine protease 1 [5]) [nM]
CCC(C)[C@H]1C(=O)N(CCCc2ccccc2)CC(=O)N1CC(=O)N[C@@H](CC1CCCN(C(=N)N)C1)C(=O)c1nccs1 (stereo partly specified)	200	3400	67	–	–
COc1ccc(C[C@H]2C(=O)N(CCCc3ccccc3)CC(=O)N2CC(=O)N[C@@H](CC2CCCN(C(=N)N)C2)C(=O)c2nccs2)cc1 (stereo partly specified)	43	350	–	3800	–
N=C(N)N1CCCC(C[C@H](NC(=O)CN2C(=O)CN(CCCc3ccccc3)C(=O)[C@@H]2CC2CCCCC2)C(=O)c2nccs2)C1 (stereo partly specified)	75	430	–	18500	–
N=C(N)N1CCCC(C[C@H](NC(=O)CN2C(=O)CN(Cc3ccccc3)C(=O)[C@@H]2Cc2ccc3ccccc3c2)C(=O)c2nccs2)C1 (stereo partly specified)	–	–	–	11100	–
N=C(N)N1CCCC(C[C@H](NC(=O)CN2C(=O)CN(CCCc3ccccc3)C(=O)[C@@H]2Cc2ccc3ccccc3c2)C(=O)c2nccs2)C1 (stereo partly specified)	30	45	–	27000	13.5
CCCC[C@H]1C(=O)N(CCCc2ccccc2)CC(=O)N1CC(=O)N[C@@H](CC1CCCN(C(=N)N)C1)C(=O)c1nccs1 (stereo partly specified)	98	1600	–	42700	–
CC(C)[C@H]1C(=O)N(CCCc2ccccc2)CC(=O)N1CC(=O)N[C@@H](CC1CCCN(C(=N)N)C1)C(=O)c1nccs1 (stereo partly specified)	–	1800	–	74800	–
N=C(N)N1CCCC(C[C@H](NC(=O)CN2C(=O)CN(CCCc3ccccc3)C(=O)C2C(c2ccccc2)c2ccccc2)C(=O)c2nccs2)C1 (stereo partly specified)	–	750	–	9700	–
CN1CC(=O)N(CC(=O)N[C@@H](CC2CCCN(C(=N)N)C2)C(=O)c2nccs2)[C@@H](Cc2ccc3ccccc3c2)C1=O (stereo partly specified)	140	1270	–	26600	–
N=C(N)NCCC[C@H](NC(=O)CN1C(=O)CN(CCCc2ccccc2)C(=O)[C@@H]1Cc1ccccc1)C(=O)c1nccs1	–	130	–	90	–
N=C(N)N1CCCC(C[C@H](NC(=O)CN2CC(=O)N(CCCc3ccccc3)CC2=O)C(=O)c2nccs2)C1 (stereo partly specified)	495	4700	–	91200	–
N=C(N)N1CCCC(C[C@H](NC(=O)CN2C(=O)CN(CCCc3ccccc3)C(=O)[C@@H]2CCc2ccccc2)C(=O)c2nccs2)C1 (stereo partly specified)	105	590	–	29000	–
N=C(N)N1CCC[C@@H](C[C@H](NC(=O)CN2C(=O)CN(CCCc3ccccc3)C(=O)[C@@H]2Cc2ccccc2)C(=O)c2nccs2)C1	24	240	80	–	–
C[C@H]1C(=O)N(CCCc2ccccc2)CC(=O)N1CC(=O)N[C@@H](C[C@@H]1CCCN(C(=N)N)C1)C(=O)c1nccs1	65	760	–	24000	–
CC(C)C[C@H]1C(=O)N(CCCc2ccccc2)CC(=O)N1CC(=O)N[C@@H](CC1CCCN(C(=N)N)C1)C(=O)c1nccs1 (stereo partly specified)	165	4300	69	–	–
N=C(N)N1CCCC(C[C@H](NC(=O)CN2C(=O)CN(CCCc3ccccc3)C(=O)[C@@H]2Cc2cccnc2)C(=O)c2nccs2)C1 (stereo partly specified)	–	1000	40	–	–
N=C(N)N1CCCC(C[C@H](NC(=O)CN2C(=O)CN(CCCc3ccccc3)C(=O)[C@@H]2Cc2ccc(Cl)cc2)C(=O)c2nccs2)C1 (stereo partly specified)	40	170	–	33400	–
